Assay: Potency (reciprocal of the equipotent molar ratio compared to carbamylcholine), estimated by contracture of the frog rectus abdominis muscle
Type: functional

Row | SMILES | Potency
1 | CC(=O)C1=CC[N+](C)(C)CC1 | 50
2 | C[C@H](O)C1CC[N+](C)(C)CC1 | 0.25
3 | C[N+]1(C)CC=C(CO)CC1 | 0.35
4 | C[N+]1(C)CCC(=NO)CC1 | 0.0055
5 | C[N+]1(C)CCN(C(=O)C(F)(F)F)CC1 | 4.6
6 | CC(=O)N1CC[N+](C)(C)CC1 | 2.6
7 | C[C@H](O)C1=CC[N+](C)(C)CC1 | 2
8 | CC(=O)C1CC[N+](C)(C)CC1 | 9.1

Reference: ChEMBL document CHEMBL1124053, “Synthesis, pharmacology, and molecular modeling studies of semirigid, nicotinic agonists” (1988)
